# Test results published in patent US6391872B1, “Indazole bioisostere replacement of catechol in therapeutically active compounds” (Pfizer Inc, priority 1997, dated 2002).
row,melting point [°C],Structure (SMILES)
1,81 to 89,"CCc1nn(C2CCCC2)c2cc(C3(C#N)CCC(=O)CC3)ccc12 [Example 6, 1-(1-Cyclopentyl-3-ethyl-1H-indazol-6-yl)-4-oxo-cyclohexanecarbonitrile]"
2,72 to 73,"CCc1nn(-c2ccc(F)cc2)c2cc(Br)ccc12 [Example 24, 6-Bromo-3-ethyl-1-(4-fluorophenyl)-1H-indazole]"
3,214 to 216,"CCc1nn(-c2ccc(F)cc2)c2cc(C3=CCC(C(=O)O)CC3)ccc12 (stereo not drawn) [Example 28, 4-(3-ethyl-1-(4-fluorophenyl)-1H-indazol-6-yl)-cyclohex-3-ene-carboxylic acid]"
